The record followed here is patent publication US20220267753A1, “RATIONAL THERAPEUTIC TARGETING OF ONCOGENIC IMMUNE SIGNALING STATES IN MYELOID MALIGNANCIES VIA THE UBIQUITIN CONJUGATING ENZYME UBE2N” (CHILDREN'S HOSPITAL MEDICAL CENTER, priority 2019, published 2022).

For experiment [1], the system named is MOLM-13 cells. Description: MOLM-13 xenograft in NSG mice. It is filed as in vivo. To be noted: 2 mg/kg i.p. Here is the method:
Lentivirally-infected MOLM-13 cells or HL-60 cells (1.9×10^4 cells per recipient) expressing a non-silencing control shRNA or UBE2N specific shRNAs were tail vein transplanted into sublethally irradiated NOD-scid IL2Rγ^−/− (NSG) mice (250 rads whole body irradiation). Moribund mice were sacrificed and assessed for leukemic burden measurements. BM and spleen cells were analyzed for GFP expression by flow cytometry using a BD FACS Canto System (BD Biosciences, San Jose, Calif.). Bone marrow aspirates were taken 2 weeks after transplantation for smears or to assess engraftment by flow cytometry. For survival analysis after UBE2N inhibitors treatment, NSG mice (n=10/group) were injected with 1×10^4 MOLM-13 cells and treated with 4 doses of 2 mg/kg/d of UC-764865, or vehicle control (0.2% tween 20 in water) for 2 weeks (8 doses total). Time of death was recorded, and Kaplan Meier survival analysis was performed using GraphPad Prism version 7.00 for Mac (GraphPad Software, La Jolla Calif. USA). Engraftment was assessed in bone marrow (BM) at one week after transplantation by flow cytometric determination of human CD33 (BDPharmingen 555450, Franklin Lakes, N.J.), human CD45 and/or human CD15. Briefly, mice were euthanized with carbon dioxide following the AVMA Guidelines for the Euthanasia of Animals and BM cells were immediately extracted by breaking the femurs with a mortar and pestle. Red blood cells were lysed with RBC lysis buffer (555899 BD Biosciences) and washed twice with Phosphate-Buffered Saline (PBS) (Dulbecco's 45000-446 (PK)), 2% Fetal Bovine Serum (FBS). 1×10^6 cells were stained with human CD33 (BDPharmighen 555450), murine CD45 (BDPharmighen 557659) by incubating in PBS, 0.2% FBS for 30 minutes on ice in the dark. After staining the cells were washed once with PBS and resuspended in incubation buffer with propidium iodine. Cells were analyzed using a BD FACS Canto System (BD Biosciences, San Jose, Calif.). Alternatively, 1×10^4 MOLM-13 cells were xenotransplanted in NSG mice without conditioning (n=10/group). Treatment with UBE2N inhibitors was started one day after transplant for […] (5 days dosing of 2 mg/kg/d, resting 2 days, 2 days dosing of 2 mg/kg/d) by intraperitoneal injections (IP). All the mice were sacrificed at day 10 post transplantation and engraftment of MOLM-13 cells was analyzed in spleen and BM by staining for human CD15 (BDPharmighen 551376) as described above. For patient-derived xenografts (PDX), 1×106 to 6×10^6 cells were transplanted via tail vain in NSGS mice conditioned with busulfan (final dose of 30 mg/kg) 24 hours prior to transplantation. Treatment with UC-764865 was started 3 days after transplantation with 5 weekly doses of 25 mg/kg UC-764865 or vehicle control (methyl-β-cyclodextrin, 50 mg/ml) via LP during a period of 2-6 weeks. BM aspirates were performed once a week and determination of engraftment was performed as described above.

For experiment [2], the system named is MOLM-13 cells. Description: Ubiquitin-enrichment screen by mass spectrometry. The format is cell-based, human. The note with it: 2 μM. Here is the method:
Details of the ubiquitin-enrichment screen are described herein. Briefly, MOLM-13 cells were treated for 24 hr. with 2 μM of UC-764864. Ubiquitin-related peptide enrichment was performed by using ubiquitin remnant motif (K-ε-GG) antibody-conjugated beads (Cell Signaling Technology, Danvers, Mass.) following the manufacturer's instructions. Tryptic peptides were loaded onto the beads, and then ubiquitin-conjugated peptides were eluted from the bead. Nanoliquid chromatography coupled to electrospray tandem mass spectrometry (nanoLC-ESI-MS/MS) analyses were performed on a TripleTof 5600+ mass spectrometer (Sciex; Concord, Ontario, Canada) coupled with a nanoLC-ultra nanoflow system (Eksigent; Dublin, Calif.) in data dependent acquisition (DDA) or data independent acquisition (DIA) modes for Sequential Window Acquisition of all Theoretical mass spectra (SWATH-MS) analysis.
MOLM-13 cells were treated for 24 hours with 2 μM of UC-764864. […] To reduce redundant peptide sequencing, former MS/MS-analyzed candidate ions were excluded after its first occurrence for 12 s. The DDA data was recorded using Analyst-1T (v.1.7) software. […]

In turn, `COc1ccc(C(=O)C=CSc2nc3ccc(C)cc3[nH]2)cc1` [UC-764865, 1-(4-methoxyphenyl)-3-[(6-methyl-1H-benzimidazol-2-yl)sulfanyl]prop-2-en-1-one] registered an onset of leukemia in the experiment with MOLM-13 cells [1] (4 doses/week for 2 weeks, vehicle 8 days) of 18 days. In the experiment with MOLM-13 cells [1] (4 doses/week for 2 weeks, vehicle 17 days, P<0.0001), this compound displayed an overall median survival of 21 days. Further, the “reduction of leukemic burden (percent of human CD15+ cells) in BM” value in the experiment on MOLM-13 cells [1] (7 doses, day 10 post transplantation, P=0.03) was 40%. Also, the “reduction of leukemic burden (percent of human CD15+ cells) in spleen” value in the experiment with MOLM-13 cells [1] (7 doses, day 10 post transplantation, P=0.3) is on record as 70%. In addition, the “spleen weight at time of death” value with MOLM-13 cells [1] (vehicle 63±29 mg, P=0.0001) came to 18 ± 6 mg. Also, in the experiment on MOLM-13 cells [1] (vs vehicle), the “reduction of splenomegaly at time of death” value was 80%.

`CCc1ccc(C(=O)C=CSc2nc3ccc(C)cc3[nH]2)cc1` [UC-764864, 1-(4-ethylphenyl)-3-[(6-methyl-1H-benzimidazol-2-yl)sulfanyl]prop-2-en-1-one]: the “ubiquitination levels of other Ub-conjugating enzymes” value with MOLM-13 cells [2] (MOLM-13) is “did not significantly alter”. In addition, the “ubiquitination of UBE2N at Lys-92” value in the experiment with MOLM-13 cells [2] (MOLM-13, P<0.01) was “significantly reduced”.
